Patent US11123337B2, “4-methylsulfonyl-substituted piperidine urea compounds” (MYOKARDIA, INC., priority 2015, dated 2021)

Target: bovine cardiac myosin (Bos taurus, UniProt Q9BE39)
Experiment: Myosin activation assay (PK/LDH-coupled ATPase, bovine cardiac myofibrils)
Format: biochemical
Conditions: AC20 = concentration at which total response is increased by twenty percent
Method: Small molecule agents were assessed for their ability to activate the enzymatic activity of bovine cardiac myosin using a biochemical assay that couples the release of ADP (adenosine diphosphate) from cardiac myosin to an enzymatic coupling system consisting of pyruvate kinase and lactate dehydrogenase (PK/LDH) and monitoring the absorbance decrease of NADH (at 340 nm) as a function of time. PK converts ADP to ATP (adenosine triphosphate) by converting PEP (phosphoenolpyruvate) to pyruvate. Pyruvate is then converted to lactate by LDH by converting NADH (nicotinamide adenine dinucleotide) to NAD (oxidized nicotinamide adenine dinucleotide). The source of cardiac myosin was from bovine heart in the form of skinned myofibrils. Prior to testing small molecule agents, the bovine myofibrils were assessed for their calcium responsiveness and the calcium concentration that achieves either a 50% (pCa50 or pCa=˜6) or <5% (pCa=10) activation of the myofibril system was chosen as the final condition for assessing the activation activity of the small molecule agents. All enzymatic activity was measured in a buffered solution containing 12 mM PIPES (piperazine-N,N′-bis(2-ethanesulfonic acid), 2 mM magnesium chloride at pH 6.8 (PM12 buffer). Final assay conditions were 1 mg/mL of bovine cardiac myofibrils, 0.4 mM PK/LDH, 50 uM ATP, 0.1 mg/mL BSA (bovine serum albumin), 10 ppm antifoam, 2 mM BME, 0.5 mM NADH, 1.5 mM PEP at the desired free calcium concentration required to achieve either 50% or <5% activation of the myofibrils.
A dilution series of compound was created in DMSO such that the final desired concentration of compound would be achieved in a volume of […] with a fixed DMSO concentration of 3.3% (v/v). Typically a 1 μL of the dilution series was added to a 384 well plate to achieve a 10 point dose response. Following the addition of 14 μL of a solution containing bovine cardiac myofibrils, PK/LDH and a solution of calcium (that achieved the desired activation), the enzymatic reaction was started with the addition of 15 μL of a solution containing ATP, PEP and NADH. The reaction progress was followed in a PerkinElmer Envision plate reader at ambient temperature using clear bottom plates. The plate reader was configured to read absorbance at 340 nm in kinetics mode for 15 minutes. Data were recorded as the slope of the absorbance response to time. The slopes of the absorbance response as a function of time were normalized to slopes on the plate containing DMSO. This normalized rate was then plotted as a function of small molecule concentration and the data was fitted to a four-parameter fit using EXCEL XLfit. The concentration at which the total response is increased by twenty or fifty percent is reported as AC20 or AC50.

bovine cardiac myosin, sequence (Q9BE39 whole entry): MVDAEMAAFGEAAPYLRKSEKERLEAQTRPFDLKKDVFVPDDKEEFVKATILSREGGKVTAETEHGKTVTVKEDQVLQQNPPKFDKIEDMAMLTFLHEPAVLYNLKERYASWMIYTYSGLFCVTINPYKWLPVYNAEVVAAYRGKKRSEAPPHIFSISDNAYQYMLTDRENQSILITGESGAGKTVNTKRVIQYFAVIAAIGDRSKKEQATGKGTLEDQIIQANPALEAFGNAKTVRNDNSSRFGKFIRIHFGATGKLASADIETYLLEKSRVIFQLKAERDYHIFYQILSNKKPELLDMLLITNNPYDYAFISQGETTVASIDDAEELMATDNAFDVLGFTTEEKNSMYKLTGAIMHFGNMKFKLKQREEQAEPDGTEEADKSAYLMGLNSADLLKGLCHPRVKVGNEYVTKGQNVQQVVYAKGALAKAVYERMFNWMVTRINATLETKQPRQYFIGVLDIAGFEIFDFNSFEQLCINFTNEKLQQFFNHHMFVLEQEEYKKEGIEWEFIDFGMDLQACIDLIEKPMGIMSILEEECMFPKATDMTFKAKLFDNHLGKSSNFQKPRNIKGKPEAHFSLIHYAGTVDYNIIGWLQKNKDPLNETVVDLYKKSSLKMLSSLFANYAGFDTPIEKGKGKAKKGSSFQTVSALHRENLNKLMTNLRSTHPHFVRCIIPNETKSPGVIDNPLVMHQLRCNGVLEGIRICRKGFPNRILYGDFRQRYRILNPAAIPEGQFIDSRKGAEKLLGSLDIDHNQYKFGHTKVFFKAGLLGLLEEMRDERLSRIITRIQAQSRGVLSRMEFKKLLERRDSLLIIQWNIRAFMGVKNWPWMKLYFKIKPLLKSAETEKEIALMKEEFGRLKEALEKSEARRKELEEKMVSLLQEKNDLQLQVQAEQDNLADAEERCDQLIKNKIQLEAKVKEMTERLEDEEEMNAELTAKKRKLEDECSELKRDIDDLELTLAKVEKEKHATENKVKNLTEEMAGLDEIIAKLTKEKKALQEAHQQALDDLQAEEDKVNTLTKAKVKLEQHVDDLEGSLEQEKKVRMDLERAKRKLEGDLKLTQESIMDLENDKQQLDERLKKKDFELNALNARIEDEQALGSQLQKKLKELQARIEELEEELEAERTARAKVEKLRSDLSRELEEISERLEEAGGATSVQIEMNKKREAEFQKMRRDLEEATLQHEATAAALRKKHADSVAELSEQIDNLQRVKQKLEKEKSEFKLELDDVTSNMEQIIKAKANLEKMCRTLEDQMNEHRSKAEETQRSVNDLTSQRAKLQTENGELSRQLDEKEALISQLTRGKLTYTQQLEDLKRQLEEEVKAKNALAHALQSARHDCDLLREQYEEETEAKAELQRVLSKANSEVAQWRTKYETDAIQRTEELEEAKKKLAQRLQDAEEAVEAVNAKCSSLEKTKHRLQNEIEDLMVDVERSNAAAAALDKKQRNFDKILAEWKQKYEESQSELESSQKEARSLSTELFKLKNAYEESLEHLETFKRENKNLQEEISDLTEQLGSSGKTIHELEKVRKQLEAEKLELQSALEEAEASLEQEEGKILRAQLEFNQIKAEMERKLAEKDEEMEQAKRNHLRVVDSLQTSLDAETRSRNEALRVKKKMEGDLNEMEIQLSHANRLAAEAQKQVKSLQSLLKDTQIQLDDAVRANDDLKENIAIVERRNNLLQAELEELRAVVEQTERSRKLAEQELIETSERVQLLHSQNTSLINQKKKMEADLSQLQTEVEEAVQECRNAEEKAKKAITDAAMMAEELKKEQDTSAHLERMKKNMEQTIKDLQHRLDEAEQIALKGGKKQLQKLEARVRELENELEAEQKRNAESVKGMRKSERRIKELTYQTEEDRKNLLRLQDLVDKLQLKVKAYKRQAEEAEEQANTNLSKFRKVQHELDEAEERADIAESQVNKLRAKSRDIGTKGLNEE
bovine cardiac myosin, sequence (P85100 whole entry partner): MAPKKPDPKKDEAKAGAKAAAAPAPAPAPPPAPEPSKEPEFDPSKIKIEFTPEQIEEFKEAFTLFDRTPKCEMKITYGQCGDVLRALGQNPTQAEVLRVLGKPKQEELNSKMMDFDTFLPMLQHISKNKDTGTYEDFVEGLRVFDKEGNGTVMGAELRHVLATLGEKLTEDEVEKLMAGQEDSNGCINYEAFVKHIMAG
bovine cardiac myosin, sequence (Q3SZE5 whole entry partner): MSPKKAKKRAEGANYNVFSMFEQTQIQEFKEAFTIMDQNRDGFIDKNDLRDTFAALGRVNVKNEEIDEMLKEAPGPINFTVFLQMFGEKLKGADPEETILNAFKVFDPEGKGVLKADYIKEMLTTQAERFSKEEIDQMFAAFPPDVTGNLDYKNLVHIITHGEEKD

Q: For `Cn1cc(S(=O)(=O)C(C)(F)C2CCN(C(=O)Nc3ccon3)CC2)c(Cl)n1` (stereo not shown) [Compound 19, 4-(1-((3-Chloro-1-methyl-1H-pyrazol-4-yl)sulfonyl)-1-fluoroethyl)-N-(isoxazol-3-yl)piperidine-1-carboxamide], which “Myosin Activation (AC20)” value is on record?
A: Its value is “+ (+ represents myosin activation value AC20 > 5 μM)”.

Q: Which “Myosin Activation (AC20)” value does the source give for `Cn1nc(C(F)F)cc1S(=O)(=O)C(C)(C)C1CCN(C(=O)Nc2ccnnc2)CC1` [Compound 122, 4-(2-((3-(difluoromethyl)-1-methyl-1H-pyrazol-5-yl)sulfonyl)propan-2-yl)-N-(pyridazin-4-yl)piperidine-1-carboxamide] here?
A: Its value is “+++ (+++ represents myosin activation value AC20 < 2 μM)”.

Q: Which “Myosin Activation (AC20)” value does the source give for `CC(C)n1cc(S(=O)(=O)CC2CCN(C(=O)Nc3ccncc3)CC2)cn1` [Compound 1, 4-(((1-Isopropyl-1H-pyrazol-4-yl)sulfonyl)methyl)-N-(pyridin-4-yl)piperidine-1-carboxamide] here?
A: The value was “+ (+ represents myosin activation value AC20 > 5 μM)”.

Q: For `Cc1ncc(NC(=O)N2CCC(C(C)(C)S(=O)(=O)c3cn(C)nc3C(F)F)CC2)cn1` [Compound 143, 4-(2-((3-(difluoromethyl)-1-methyl-1H-pyrazol-4-yl)sulfonyl)propan-2-yl)-N-(2-methylpyrimidin-5-yl)piperidine-1-carboxamide], which “Myosin Activation (AC20)” value is on record?
A: The value was “+ (+ represents myosin activation value AC20 > 5 μM)”.

Q: Which “Myosin Activation (AC20)” value does the source give for `CC(F)(C1CCN(C(=O)Nc2ccnnc2)CC1)S(=O)(=O)c1ccccc1C#N` (stereo not shown) [Compound 56, 4-(1-((2-cyanophenyl)sulfonyl)-1-fluoroethyl)-N-(pyridazin-4-yl)piperidine-1-carboxamide] here?
A: The value was “+++ (+++ represents myosin activation value AC20 < 2 μM)”.

Q: Which “Myosin Activation (AC20)” value does the source give for `Cn1nc(C(F)(F)F)cc1S(=O)(=O)C(C)(F)C1CCN(C(=O)Nc2ccon2)CC1` (stereo not shown) [Compound 249, 4-(1-fluoro-1-((1-methyl-3-(trifluoromethyl)-1H-pyrazol-5-yl)sulfonyl)ethyl)-N-(isoxazol-3-yl)piperidine-1-carboxamide] here?
A: Its value is “++ (++ represents myosin activation value AC20 from 2 μM-5 μM)”.

Q: For `C[C@@](F)(C1CCN(C(=O)Nc2ccon2)CC1)S(=O)(=O)c1cccc(F)c1` [Compound 285, (S)-4-(1-fluoro-1-((3-fluorophenyl)sulfonyl)ethyl)-N-(isoxazol-3-yl)piperidine-1-carboxamide], which “Myosin Activation (AC20)” value is on record?
A: Its value is “+ (+ represents myosin activation value AC20 > 5 μM)”.

Q: For `Cn1nc(C(F)(F)F)cc1S(=O)(=O)C(C)(C)C1CCN(C(=O)Nc2ccon2)CC1` [Compound 126, N-(isoxazol-3-yl)-4-(2-((1-methyl-3-(trifluoromethyl)-1H-pyrazol-5-yl)sulfonyl)propan-2-yl)piperidine-1-carboxamide], which “Myosin Activation (AC20)” value is on record?
A: Its value is “++ (++ represents myosin activation value AC20 from 2 μM-5 μM)”.

Q: For `O=C(Nc1cncs1)N1CCC(CS(=O)(=O)c2cccc(F)c2)CC1` [Compound 36, 4-(((3-fluorophenyl)sulfonyl)methyl)-N-(thiazol-5-yl)piperidine-1-carboxamide], which “Myosin Activation (AC20)” value is on record?
A: The value was “+ (+ represents myosin activation value AC20 > 5 μM)”.

Q: For `Cn1nccc1S(=O)(=O)C(C)(F)C1CCN(C(=O)Nc2cccnc2)CC1` (stereo not shown) [Compound 227, 4-(1-fluoro-1-((1-methyl-1H-pyrazol-5-yl)sulfonyl)ethyl)-N-(pyridin-3-yl)piperidine-1-carboxamide], which “Myosin Activation (AC20)” value is on record?
A: Its value is “+ (+ represents myosin activation value AC20 > 5 μM)”.

Q: How did the “Myosin Activation (AC20)” value turn out when `O=C(Nc1ccnnc1)N1CCC(C(F)(F)S(=O)(=O)c2ccc(O)nc2)CC1` [Compound 88, 4-(difluoro((6-hydroxypyridin-3-yl)sulfonyl)methyl)-N-(pyridazin-4-yl)piperidine-1-carboxamide] was run?
A: The value was “+ (+ represents myosin activation value AC20 > 5 μM)”.

Q: How did the “Myosin Activation (AC20)” value turn out when `O=C(Nc1ccnnc1)N1CCC(F)(C2(S(=O)(=O)c3cccc(F)c3)CCC2)CC1` [Compound 166, 4-fluoro-4-(1-((3-fluorophenyl)sulfonyl)cyclobutyl)-N-(pyridazin-4-yl)piperidine-1-carboxamide] was run?
A: The value was “++ (++ represents myosin activation value AC20 from 2 μM-5 μM)”.

Q: For `Cn1cc(S(=O)(=O)C(F)(F)C2CCN(C(=O)Nc3ccc(C#N)nc3)CC2)c(C(F)F)n1` [Compound 78, N-(6-cyanopyridin-3-yl)-4-(((3-(difluoromethyl)-1-methyl-1H-pyrazol-4-yl)sulfonyl)difluoromethyl)piperidine-1-carboxamide], which “Myosin Activation (AC20)” value is on record?
A: Its value is “+ (+ represents myosin activation value AC20 > 5 μM)”.

Q: Which “Myosin Activation (AC20)” value does the source give for `Cn1nccc1S(=O)(=O)C(C)(C)C1CCN(C(=O)Nc2ccncc2)CC1` [Compound 194, 4-(2-((1-methyl-1H-pyrazol-5-yl)sulfonyl)propan-2-yl)-N-(pyridin-4-yl)piperidine-1-carboxamide] here?
A: The value was “++ (++ represents myosin activation value AC20 from 2 μM-5 μM)”.

Q: How did the “Myosin Activation (AC20)” value turn out when `C[C@](F)(C1CCN(C(=O)Nc2ccc(CO)nc2)CC1)S(=O)(=O)c1cccc(F)c1` [Compound 286, (R)-4-(1-fluoro-1-((3-fluorophenyl)sulfonyl)ethyl)-N-(6-(hydroxymethyl)pyridin-3-yl)piperidine-1-carboxamide] was run?
A: The value was “+ (+ represents myosin activation value AC20 > 5 μM)”.

Q: For `CC(F)(C1CCN(C(=O)Nc2cnns2)CC1)S(=O)(=O)c1ccc(C(F)(F)F)cc1` (stereo not shown) [Compound 268, 4-(1-fluoro-1-((4-(trifluoromethyl)phenyl)sulfonyl)ethyl)-N-(1,2,3-thiadiazol-5-yl)piperidine-1-carboxamide], which “Myosin Activation (AC20)” value is on record?
A: The value was “+++ (+++ represents myosin activation value AC20 < 2 μM)”.

Q: `CC(F)(C1CCN(C(=O)Nc2cnns2)CC1)S(=O)(=O)c1ccc(C#N)cc1` (stereo not shown) [Compound 274, 4-(1-((4-cyanophenyl)sulfonyl)-1-fluoroethyl)-N-(1,2,3-thiadiazol-5-yl)piperidine-1-carboxamide] was tested. Which “Myosin Activation (AC20)” value did it give?
A: Its value is “+++ (+++ represents myosin activation value AC20 < 2 μM)”.

Q: For `Cc1ccc(NC(=O)N2CCC(C(C)(C)S(=O)(=O)c3cccc(F)c3)CC2)nn1` [Compound 121, 4-(2-((3-fluorophenyl)sulfonyl)propan-2-yl)-N-(6-methylpyridazin-3-yl)piperidine-1-carboxamide], which “Myosin Activation (AC20)” value is on record?
A: The value was “+ (+ represents myosin activation value AC20 > 5 μM)”.

Q: `COc1ccccc1S(=O)(=O)C(C)(F)C1CCN(C(=O)Nc2ccnnc2)CC1` (stereo not shown) [Compound 273, 4-(1-fluoro-1-((2-methoxyphenyl)sulfonyl)ethyl)-N-(pyridazin-4-yl)piperidine-1-carboxamide] was tested. Which “Myosin Activation (AC20)” value did it give?
A: Its value is “++ (++ represents myosin activation value AC20 from 2 μM-5 μM)”.

Q: Which “Myosin Activation (AC20)” value does the source give for `Cc1ccc(NC(=O)N2CCC(C(C)(F)S(=O)(=O)c3ccnn3C)CC2)cn1` (stereo not shown) [Compound 225, 4-(1-fluoro-1-((1-methyl-1H-pyrazol-5-yl)sulfonyl)ethyl)-N-(6-methylpyridin-3-yl)piperidine-1-carboxamide] here?
A: Its value is “++ (++ represents myosin activation value AC20 from 2 μM-5 μM)”.

Q: With `CC(C)(C1CCN(C(=O)Nc2cccnc2)CC1)S(=O)(=O)c1cccc(F)c1` [Compound 133, 4-(2-((3-fluorophenyl)sulfonyl)propan-2-yl)-N-(pyridin-3-yl)piperidine-1-carboxamide] as the molecule, how does the “Myosin Activation (AC20)” value read?
A: The value was “++ (++ represents myosin activation value AC20 from 2 μM-5 μM)”.

Q: Which “Myosin Activation (AC20)” value does the source give for `Cn1ccc(NC(=O)N2CCC(C(C)(C)S(=O)(=O)c3cccc(F)c3)CC2)n1` [Compound 138, 4-(2-((3-fluorophenyl)sulfonyl)propan-2-yl)-N-(1-methyl-1H-pyrazol-3-yl)piperidine-1-carboxamide] here?
A: Its value is “+ (+ represents myosin activation value AC20 > 5 μM)”.

Q: How did the “Myosin Activation (AC20)” value turn out when `CC(C)(C1CCN(C(=O)Nc2cn[nH]c2)CC1)S(=O)(=O)c1cccc(F)c1` [Compound 146, 4-(2-((3-fluorophenyl)sulfonyl)propan-2-yl)-N-(1H-pyrazol-4-yl)piperidine-1-carboxamide] was run?
A: The value was “++ (++ represents myosin activation value AC20 from 2 μM-5 μM)”.

Q: With `Cn1cc(S(=O)(=O)C(C)(C)C2CCN(C(=O)Nc3ccnnc3)CC2)c(C(F)F)n1` [Compound 168, 4-(2-((3-(difluoromethyl)-1-methyl-1H-pyrazol-4-yl)sulfonyl)propan-2-yl)-N-(pyridazin-4-yl)piperidine-1-carboxamide] as the molecule, how does the “Myosin Activation (AC20)” value read?
A: The value was “+++ (+++ represents myosin activation value AC20 < 2 μM)”.

Q: How did the “Myosin Activation (AC20)” value turn out when `Cn1cc(S(=O)(=O)[C@@](C)(F)C2CCN(C(=O)Nc3ccc(C#N)nc3)CC2)c(C(F)F)n1` [Compound 299, (R)-N-(6-cyanopyridin-3-yl)-4-(1-((3-(difluoromethyl)-1-methyl-1H-pyrazol-4-yl)sulfonyl)-1-fluoroethyl)piperidine-1-carboxamide] was run?
A: The value was “+++ (+++ represents myosin activation value AC20 < 2 μM)”.
